Usually AC50 stands for the midpoint of the concentration-response curve, whichever way the signal moves. Higher therefore signals weaker potency.

Targets include D(1A) dopamine receptor (Homo sapiens, UniProt P21728); Estrogen receptor beta (Homo sapiens, UniProt Q92731); Substance-P receptor (Homo sapiens, UniProt P25103).
The next assay concerns the target T1, D(4) dopamine receptor (Homo sapiens, UniProt P21917).
T1 sequence (P21917 whole entry): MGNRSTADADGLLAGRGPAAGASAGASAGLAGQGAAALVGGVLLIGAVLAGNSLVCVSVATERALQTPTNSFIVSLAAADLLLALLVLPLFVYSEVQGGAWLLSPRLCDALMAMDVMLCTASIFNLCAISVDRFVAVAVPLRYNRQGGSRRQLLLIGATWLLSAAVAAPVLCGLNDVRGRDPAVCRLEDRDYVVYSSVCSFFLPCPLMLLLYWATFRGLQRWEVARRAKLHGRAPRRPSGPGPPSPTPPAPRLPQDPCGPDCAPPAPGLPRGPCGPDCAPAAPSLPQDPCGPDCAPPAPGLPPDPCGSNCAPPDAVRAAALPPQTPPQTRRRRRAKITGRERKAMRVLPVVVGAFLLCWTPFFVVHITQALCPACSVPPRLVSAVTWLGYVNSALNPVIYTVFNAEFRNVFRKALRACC

The target of assay [1] is Hydroxycarboxylic acid receptor 2 (Homo sapiens, UniProt Q8TDS4).
Hydroxycarboxylic acid receptor 2, sequence (Q8TDS4 whole entry): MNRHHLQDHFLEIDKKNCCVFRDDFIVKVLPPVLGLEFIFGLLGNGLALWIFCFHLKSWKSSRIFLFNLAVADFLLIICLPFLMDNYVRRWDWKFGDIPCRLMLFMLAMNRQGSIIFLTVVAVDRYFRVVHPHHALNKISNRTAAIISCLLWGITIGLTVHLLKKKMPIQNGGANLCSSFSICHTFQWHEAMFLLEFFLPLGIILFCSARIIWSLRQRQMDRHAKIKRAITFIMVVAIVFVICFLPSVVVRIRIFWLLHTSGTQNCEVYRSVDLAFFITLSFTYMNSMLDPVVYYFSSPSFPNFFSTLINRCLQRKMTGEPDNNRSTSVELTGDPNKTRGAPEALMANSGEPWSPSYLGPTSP
In assay [2] the target is T2, Alpha-1A adrenergic receptor (Homo sapiens, UniProt P35348).
T2 sequence (P35348 whole entry): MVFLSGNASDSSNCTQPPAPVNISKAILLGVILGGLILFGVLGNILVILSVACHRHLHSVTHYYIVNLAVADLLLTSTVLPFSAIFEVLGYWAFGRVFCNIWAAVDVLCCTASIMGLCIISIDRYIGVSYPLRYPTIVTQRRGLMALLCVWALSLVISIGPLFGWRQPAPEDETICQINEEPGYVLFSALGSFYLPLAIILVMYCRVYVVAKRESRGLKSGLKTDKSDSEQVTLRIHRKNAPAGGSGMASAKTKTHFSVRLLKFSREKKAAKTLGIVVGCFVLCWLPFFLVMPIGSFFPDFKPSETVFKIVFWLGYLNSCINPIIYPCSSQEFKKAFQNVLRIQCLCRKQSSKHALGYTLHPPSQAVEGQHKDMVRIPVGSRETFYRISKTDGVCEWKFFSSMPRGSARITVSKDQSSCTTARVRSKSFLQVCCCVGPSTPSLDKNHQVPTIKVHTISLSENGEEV

Assay [3] deals with Beta-1 adrenergic receptor (Homo sapiens, UniProt P08588). It counts as functional, cell-based.
Beta-1 adrenergic receptor, sequence (P08588 whole entry): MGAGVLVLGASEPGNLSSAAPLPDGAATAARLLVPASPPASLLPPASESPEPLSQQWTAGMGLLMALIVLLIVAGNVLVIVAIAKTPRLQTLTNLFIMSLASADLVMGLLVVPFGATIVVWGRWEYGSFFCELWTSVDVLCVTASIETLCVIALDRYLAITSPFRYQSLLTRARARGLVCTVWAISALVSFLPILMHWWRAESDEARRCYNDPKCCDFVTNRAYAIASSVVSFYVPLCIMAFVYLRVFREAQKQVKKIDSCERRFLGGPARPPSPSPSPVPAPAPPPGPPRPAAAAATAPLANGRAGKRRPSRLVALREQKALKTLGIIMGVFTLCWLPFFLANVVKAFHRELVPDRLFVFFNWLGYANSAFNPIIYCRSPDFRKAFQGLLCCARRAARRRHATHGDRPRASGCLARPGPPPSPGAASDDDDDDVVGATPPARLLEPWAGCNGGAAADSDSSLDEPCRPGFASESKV
The target in assay [4] is T3, Muscarinic acetylcholine receptor M5 (Homo sapiens, UniProt P08912).
T3 sequence (P08912 whole entry): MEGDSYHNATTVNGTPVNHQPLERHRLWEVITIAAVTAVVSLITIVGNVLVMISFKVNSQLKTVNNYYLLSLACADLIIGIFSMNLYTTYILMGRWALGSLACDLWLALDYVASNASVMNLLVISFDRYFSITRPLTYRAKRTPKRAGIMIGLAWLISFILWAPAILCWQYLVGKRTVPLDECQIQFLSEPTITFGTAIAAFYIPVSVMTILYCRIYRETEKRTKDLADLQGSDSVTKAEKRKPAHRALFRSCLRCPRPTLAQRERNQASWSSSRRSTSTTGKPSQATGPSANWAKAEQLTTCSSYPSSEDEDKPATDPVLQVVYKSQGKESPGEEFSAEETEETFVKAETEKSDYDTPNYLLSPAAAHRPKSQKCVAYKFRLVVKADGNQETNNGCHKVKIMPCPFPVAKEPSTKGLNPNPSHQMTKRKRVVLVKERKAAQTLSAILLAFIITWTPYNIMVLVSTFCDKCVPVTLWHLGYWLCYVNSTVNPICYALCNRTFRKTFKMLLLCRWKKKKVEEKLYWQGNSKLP

A further assay concerns the target Cannabinoid receptor 1 (Homo sapiens, UniProt P21554). Format: functional.
Assay [5] deals with 5-hydroxytryptamine receptor 6 (Homo sapiens, UniProt P50406).
5-hydroxytryptamine receptor 6, sequence (P50406 whole entry): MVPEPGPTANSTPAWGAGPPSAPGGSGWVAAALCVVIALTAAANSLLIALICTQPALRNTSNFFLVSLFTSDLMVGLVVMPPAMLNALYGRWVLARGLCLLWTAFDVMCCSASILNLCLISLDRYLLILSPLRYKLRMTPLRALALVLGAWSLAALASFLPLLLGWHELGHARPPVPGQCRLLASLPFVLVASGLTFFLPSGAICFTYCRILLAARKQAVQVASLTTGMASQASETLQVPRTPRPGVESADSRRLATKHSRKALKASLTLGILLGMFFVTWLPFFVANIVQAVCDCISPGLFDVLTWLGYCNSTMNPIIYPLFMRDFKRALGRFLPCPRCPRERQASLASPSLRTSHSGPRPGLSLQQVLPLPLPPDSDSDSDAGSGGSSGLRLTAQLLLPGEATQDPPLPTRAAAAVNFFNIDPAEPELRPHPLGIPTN
The target of assay [6] is 5-hydroxytryptamine receptor 7 (Homo sapiens, UniProt P34969).
5-hydroxytryptamine receptor 7, sequence (P34969 whole entry): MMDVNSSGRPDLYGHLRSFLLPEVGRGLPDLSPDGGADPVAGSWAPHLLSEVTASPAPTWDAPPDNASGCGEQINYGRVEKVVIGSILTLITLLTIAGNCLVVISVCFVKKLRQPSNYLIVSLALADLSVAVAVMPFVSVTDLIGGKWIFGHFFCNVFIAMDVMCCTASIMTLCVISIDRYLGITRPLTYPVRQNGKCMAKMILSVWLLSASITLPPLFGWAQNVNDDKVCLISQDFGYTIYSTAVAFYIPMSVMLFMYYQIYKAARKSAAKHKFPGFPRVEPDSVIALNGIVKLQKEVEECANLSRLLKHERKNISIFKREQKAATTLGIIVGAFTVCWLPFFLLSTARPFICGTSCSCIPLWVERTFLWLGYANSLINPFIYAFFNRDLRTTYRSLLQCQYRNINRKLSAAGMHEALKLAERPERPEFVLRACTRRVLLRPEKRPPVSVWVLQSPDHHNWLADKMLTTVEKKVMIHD
The target of assay [7] is Gamma-aminobutyric acid type B receptor subunit 1 (Homo sapiens, UniProt Q9UBS5).
Gamma-aminobutyric acid type B receptor subunit 1, sequence (Q9UBS5 whole entry): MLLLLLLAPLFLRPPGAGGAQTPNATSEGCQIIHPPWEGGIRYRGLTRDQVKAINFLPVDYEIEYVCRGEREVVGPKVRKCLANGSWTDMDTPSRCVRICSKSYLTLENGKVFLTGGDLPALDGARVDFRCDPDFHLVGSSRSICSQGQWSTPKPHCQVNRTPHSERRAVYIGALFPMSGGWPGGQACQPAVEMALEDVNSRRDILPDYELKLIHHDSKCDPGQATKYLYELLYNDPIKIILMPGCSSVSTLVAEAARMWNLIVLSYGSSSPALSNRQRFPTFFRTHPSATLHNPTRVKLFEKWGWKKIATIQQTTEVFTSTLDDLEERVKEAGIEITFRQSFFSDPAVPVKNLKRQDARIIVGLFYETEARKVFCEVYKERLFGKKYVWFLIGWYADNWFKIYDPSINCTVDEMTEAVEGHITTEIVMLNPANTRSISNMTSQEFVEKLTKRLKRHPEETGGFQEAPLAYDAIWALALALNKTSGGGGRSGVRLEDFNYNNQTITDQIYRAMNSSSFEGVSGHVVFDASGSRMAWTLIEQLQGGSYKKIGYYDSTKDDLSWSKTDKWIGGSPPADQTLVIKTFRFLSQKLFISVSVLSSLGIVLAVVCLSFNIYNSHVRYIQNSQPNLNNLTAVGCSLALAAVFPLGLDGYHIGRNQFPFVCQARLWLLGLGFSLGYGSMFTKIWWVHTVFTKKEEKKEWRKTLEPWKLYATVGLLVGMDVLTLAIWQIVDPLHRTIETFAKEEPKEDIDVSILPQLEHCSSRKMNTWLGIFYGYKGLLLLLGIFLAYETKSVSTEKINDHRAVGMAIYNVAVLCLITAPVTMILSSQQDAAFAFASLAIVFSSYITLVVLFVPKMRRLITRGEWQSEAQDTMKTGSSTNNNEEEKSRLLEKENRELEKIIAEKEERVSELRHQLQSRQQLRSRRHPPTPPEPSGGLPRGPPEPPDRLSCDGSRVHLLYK
Assay [8] concerns the target 5-hydroxytryptamine receptor 5A (Homo sapiens, UniProt P47898).
In assay [9] the target is Sodium channel protein type 5 subunit alpha (Homo sapiens, UniProt Q14524). It counts as functional, cell-based.
Also: assay procedure not described here.

Substance-P receptor, sequence (P25103 whole entry): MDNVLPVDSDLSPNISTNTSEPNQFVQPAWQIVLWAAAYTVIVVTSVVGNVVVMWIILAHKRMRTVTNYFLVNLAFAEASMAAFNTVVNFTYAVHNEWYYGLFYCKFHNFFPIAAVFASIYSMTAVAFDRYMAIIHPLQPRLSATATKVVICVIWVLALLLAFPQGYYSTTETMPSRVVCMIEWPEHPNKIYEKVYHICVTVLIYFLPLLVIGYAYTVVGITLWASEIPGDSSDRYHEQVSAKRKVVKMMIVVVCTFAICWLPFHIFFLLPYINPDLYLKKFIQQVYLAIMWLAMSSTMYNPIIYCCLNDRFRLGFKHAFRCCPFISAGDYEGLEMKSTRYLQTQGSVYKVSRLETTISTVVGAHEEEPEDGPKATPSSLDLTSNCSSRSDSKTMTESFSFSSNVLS
D(1A) dopamine receptor, sequence (P21728 whole entry): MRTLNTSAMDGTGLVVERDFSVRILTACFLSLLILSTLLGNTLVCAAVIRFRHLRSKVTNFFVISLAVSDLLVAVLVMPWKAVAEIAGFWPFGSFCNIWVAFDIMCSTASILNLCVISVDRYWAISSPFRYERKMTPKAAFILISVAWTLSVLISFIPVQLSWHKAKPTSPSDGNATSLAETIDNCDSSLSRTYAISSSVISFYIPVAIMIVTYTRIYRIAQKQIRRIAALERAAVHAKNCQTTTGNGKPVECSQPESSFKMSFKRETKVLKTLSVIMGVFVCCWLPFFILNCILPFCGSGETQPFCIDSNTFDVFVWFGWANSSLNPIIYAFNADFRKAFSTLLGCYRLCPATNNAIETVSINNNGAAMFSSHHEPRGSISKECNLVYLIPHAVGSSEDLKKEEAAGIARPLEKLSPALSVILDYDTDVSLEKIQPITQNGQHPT
Estrogen receptor beta, sequence (Q92731 whole entry): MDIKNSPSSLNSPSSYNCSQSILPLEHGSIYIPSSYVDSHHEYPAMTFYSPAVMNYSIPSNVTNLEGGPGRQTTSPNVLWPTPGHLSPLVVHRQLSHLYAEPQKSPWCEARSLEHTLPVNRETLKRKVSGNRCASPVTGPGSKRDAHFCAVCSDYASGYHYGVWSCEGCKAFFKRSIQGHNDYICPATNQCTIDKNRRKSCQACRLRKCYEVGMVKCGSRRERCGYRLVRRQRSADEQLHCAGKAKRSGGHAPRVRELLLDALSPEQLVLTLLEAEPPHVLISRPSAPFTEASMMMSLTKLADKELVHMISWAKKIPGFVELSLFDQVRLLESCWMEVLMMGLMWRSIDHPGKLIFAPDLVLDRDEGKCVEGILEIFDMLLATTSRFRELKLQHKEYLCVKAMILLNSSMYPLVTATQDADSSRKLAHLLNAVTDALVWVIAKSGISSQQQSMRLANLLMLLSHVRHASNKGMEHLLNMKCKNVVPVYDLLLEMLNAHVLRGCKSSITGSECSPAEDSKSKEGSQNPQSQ
5-hydroxytryptamine receptor 5A, sequence (P47898 whole entry): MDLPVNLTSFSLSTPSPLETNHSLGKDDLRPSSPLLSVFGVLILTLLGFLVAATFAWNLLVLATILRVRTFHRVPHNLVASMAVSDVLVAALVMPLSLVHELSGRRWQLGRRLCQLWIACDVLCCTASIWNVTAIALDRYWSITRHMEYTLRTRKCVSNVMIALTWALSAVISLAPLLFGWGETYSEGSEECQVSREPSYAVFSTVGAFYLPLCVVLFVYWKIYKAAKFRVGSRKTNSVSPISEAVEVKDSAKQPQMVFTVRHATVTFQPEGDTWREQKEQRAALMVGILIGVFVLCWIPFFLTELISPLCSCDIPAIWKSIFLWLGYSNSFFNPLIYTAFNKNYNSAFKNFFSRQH
Cannabinoid receptor 1, sequence (P21554 whole entry): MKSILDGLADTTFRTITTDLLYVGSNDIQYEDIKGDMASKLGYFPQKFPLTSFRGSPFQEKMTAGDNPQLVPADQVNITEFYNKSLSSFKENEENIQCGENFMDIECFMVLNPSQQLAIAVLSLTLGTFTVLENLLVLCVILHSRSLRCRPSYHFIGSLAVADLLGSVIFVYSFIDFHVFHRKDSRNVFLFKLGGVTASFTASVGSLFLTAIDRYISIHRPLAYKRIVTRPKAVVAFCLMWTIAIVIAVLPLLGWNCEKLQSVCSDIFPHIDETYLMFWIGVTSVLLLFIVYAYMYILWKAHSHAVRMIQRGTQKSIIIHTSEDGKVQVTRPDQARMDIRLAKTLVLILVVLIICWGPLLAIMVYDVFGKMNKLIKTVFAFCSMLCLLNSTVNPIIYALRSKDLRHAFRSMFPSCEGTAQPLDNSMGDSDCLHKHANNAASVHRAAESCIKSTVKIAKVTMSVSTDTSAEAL

Regarding `COc1ccc2cccc(CCNC(C)=O)c2c1` [AGOMELATINE], the concentration at half-maximal activity (AC50) on D(4) dopamine receptor is over 10 µM; in assay [1] it was over 10 µM; at D(1A) dopamine receptor, over 10 µM; on Estrogen receptor beta, over 30 µM; on Substance-P receptor, over 10 µM; in assay [2] it was over 10 µM.
As to `CCC(C(=O)O)c1ccc(CC(C)C)cc1` (stereo not drawn) [BUTIBUFEN], the concentration at half-maximal activity (AC50) in assay [3] was over 30 µM.
In the case of `CN(C)C(=O)OC1N=C(c2ccccc2)c2cc(Cl)ccc2N(C)C1=O` (stereo not drawn) [CAMAZEPAM], the half-maximal activity concentration (AC50) (in assay [4]; on Cannabinoid receptor 1; at D(4) dopamine receptor; in assay [5]; in [6]; in [7]) was over 10 µM each time. Besides, the concentration at half-maximal activity (AC50) in assay [8] was over 10 µM; on D(1A) dopamine receptor, over 10 µM; on Estrogen receptor beta, over 30 µM; on Substance-P receptor, over 10 µM; in [2], over 10 µM.
Consider `CN[C@@H](C)[C@H](O)c1ccccc1` [EPHEDRINE], for which the concentration at half-maximal activity (AC50) at D(4) dopamine receptor was over 10 µM; in assay [9], over 30 µM; in [1], over 10 µM; at D(1A) dopamine receptor, over 10 µM; at Estrogen receptor beta it was over 30 µM; at Substance-P receptor, over 10 µM. The compound also displayed an AC50 in assay [2] of over 10 µM.
Compound `C1=Cc2cccc(OCC3CNCCO3)c2C1` (stereo not drawn) [INDELOXAZINE] had an AC50 in assay [3] of over 30 µM.
Consider `O=C(O)Cc1cn(-c2ccccc2)nc1-c1ccc(Cl)cc1` [LONAZOLAC], for which the AC50 in assay [3] was over 30 µM.
With `C#C[C@]1(O)CC[C@H]2[C@@H]3CCC4=CCCC[C@@H]4[C@H]3CC[C@@]21C` [LYNESTRENOL], in assay [3], the AC50 is over 30 µM.
As to `C[C@]12CCC(=O)C=C1CC[C@@H]1[C@@H]2CC[C@@]2(C)[C@H]1CC[C@]2(C)O` [METHYLTESTOSTERONE], the AC50 in assay [3] was over 30 µM.
`Cc1cc(-c2ccccc2)nnc1NCCN1CCOCC1` [MINAPRINE]: the AC50 at D(4) dopamine receptor is over 10 µM; in assay [1] it was over 10 µM; at D(1A) dopamine receptor it was over 10 µM; at Estrogen receptor beta, over 30 µM; at Substance-P receptor, over 10 µM; in assay [2], over 10 µM.
In the case of `NC(=O)C[S+]([O-])C(c1ccccc1)c1ccccc1` (stereo not drawn) [MODAFINIL], the AC50 (in [4]; at Cannabinoid receptor 1; at D(4) dopamine receptor; in assay [5]; in assay [6]; in [7]) was over 10 µM in each case. In addition, the AC50 is over 10 µM in assay [8]; over 10 µM at D(1A) dopamine receptor; over 30 µM on Estrogen receptor beta; over 10 µM on Substance-P receptor; over 10 µM in assay [2].
As to `COc1c(C)c2c(c(O)c1C/C=C(\C)CCC(=O)OCCN1CCOCC1)C(=O)OC2` [MYCOPHENOLATE MOFETIL], the AC50 in assay [3] was over 30 µM.
For the compound `Cc1c(Cl)cccc1Nc1ccccc1C(=O)O` [TOLFENAMIC ACID], the AC50 in assay [3] is over 30 µM.
Regarding `Cc1ccc(-c2nc3ccc(C)cn3c2CC(=O)N(C)C)cc1` [ZOLPIDEM], the AC50 (in [4]; at Cannabinoid receptor 1; at D(4) dopamine receptor; in [5]; in assay [6]; in assay [7]) was over 10 µM each time. Besides, the concentration at half-maximal activity (AC50) (in assay [8]; at D(1A) dopamine receptor; on Substance-P receptor; in assay [2]) was over 10 µM throughout.
